Consider five compounds from publication PMC11944514, “Dengue Virus Inhibitors as Potential Broad-Spectrum Flavivirus Inhibitors” (Pharmaceuticals, 2025).

SMILES strings stand for the structures. pEC50: −log10 of the molar value. Like-named read-outs stand apart in the source and are kept apart here.

In data set [1] the test system is Vero E6. The following applies: cited from earlier work.
For the next data set, the system named is TBEV. The following applies: cited from earlier work.
The subject of the next data set is ZIKV. Further details: method as in PMID 29642580. The following applies: reference inhibitor compound; cited from earlier work.
A further data set deals with KUNV. Particulars: cited from earlier work.
The nature of data set [2]: xCELLigence real-time cytotoxicity assay (RTCA), CC50. Format: cell-based. The following applies: African green monkey, Vero E6 cells, 24 h of exposure. The method, then: As compounds C1, C2, and C3 were relatively toxic (Figure 2A), we determined the selectivity index (SI) of the identified potential broad-spectrum flavivirus inhibitors. As the WST-1 assay tends to underestimate the toxic effect and is unable to detect cytostatic effects, the CC50 of the perspective compounds was measured using a more sensitive xCELLigence real-time cytotoxicity assay (RTCA). […] The full xCELLigence RTCA data are provided in the Supporting Information section (Figures S2 and S3). Thereafter, for each compound, the SI was calculated as a ratio of the CC50 of a compound against its EC50 [36].
Vero E6 cells were seeded on a 16-well E-plate (ACEA Biosciences, Inc., San Diego, CA, USA ) at a density of 5 × 10^3 cells/well and allowed to adhere overnight. On the next day, the studied compounds were added at the final concentrations ranging from 0.078 μM to 5 μM with a two-fold dilution step for compounds C1, C2, and C3, and at the final concentrations ranging from 1.56 μM to 50 μM with a two-fold dilution step for compounds C5 and C6; 0.01% DMSO was used as a solvent control. The cells were incubated for 5 days, and the signals between the electrodes (impedance) were recorded using an RTCA xCELLigence machine (Agilent Technologies, Inc., Santa Clara, CA, USA). […] The CC50 values were calculated using GraphPad Prism 10.0 for Windows, GraphPad Software, v. 10.4.1, Boston, MA, USA, www.graphpad.com (accessed on 16 February 2025).

In data set [3] the test system is New Guinea C strain of DENV2. The following applies: human Huh7 cells infected for 48 h, Renilla luciferase assay; read-out: EC50 against the New Guinea C strain of DENV2; cited from earlier work.
In a further data set the test system is KUNV-Nanoluc. Kind of data set: organism not typed. Format: cell-based. The following applies: for EC50: Vero C1008, read-out: KUNV EC50, μM.
Another data set concerns ZIKV-Nanoluc. Kind of data set: microbe, parasite or virus in culture. The following applies: for EC50: Zika virus, Vero C1008, read-out: ZIKV EC50, μM. The format is cell-based.
A further data set relates to TBEV-Nanoluc. The experiment in a line: microbe, parasite or virus in culture. Format: cell-based.
The next data set concerns DENV2-Nanoluc. Kind of data set: microbe, parasite or virus in culture. The following applies: for EC50: DENV2, Vero C1008, read-out: DENV2 EC50, μM. The format is cell-based.
The next data set concerns DENV2-Nanoluc replicon. The format is cell-based.
In another data set the test system is TBEV-Nanoluc replicon. The format is cell-based.
The next data set relates to ZIKV-Nanoluc replicon. The format is cell-based.
Data set [4] has as its system U2OS cells. Kind of data set: WST-1 cell viability assay, U2OS. Format: cell-based, human. Particulars: 48 h of exposure. As for the experimental part: (§1) Vero E6 or U2OS cells were seeded on the 96-well plate at a density of 1 × 10^4 cells/well and were allowed to adhere overnight. Next day, the cells were treated with the studied compounds at concentrations ranging from 1 to 100 μM with a ten-fold dilution step. As a solvent control, 0.01% DMSO (Sigma, St. Louis, MO, USA) was used. After 48 h of exposure, 10 μL of WST-1 (10 mg/mL) cell proliferation reagent (Roche, Cat. No. 11644807001) was added to each well, and plates were incubated at 37 °C, 5% CO2 for 2 h. The optical density was then measured at 450 nm using an Epoch Microplate Spectrophotometer (BioTek Instruments, Inc., Winooski, VT, USA). Four independent experiments were carried out in triplicates.
A general note: Tetrazolium assays rely on reduction of a dye to a coloured formazan, in cell work by metabolically active cells.

Data set [5] concerns U2OS cells. More on the design: method as in PMID 31609477. Particulars: previously reported; read-out: 50% cytotoxic concentration (CC50) against U2OS cells; cited from earlier work.
The test system of a further data set is DENV-2-NGC. More on the design: method as in PMID 17360676. The following applies: Vero E6 cells; read-out: EC50, inhibition of DENV-2-NGC activity; cited from earlier work.
The test system of a further data set is KUNV-Nanoluc replicon. The format is cell-based.
Data set [6] has as its system DENV2. More on the design: method as in PMID 25878766. Particulars: BHK-21 cells; read-out: EC50, inhibition of DENV2 infection; cited from earlier work.
The test system of another data set is Vero E6 cells. The experiment in a line: WST-1 cell viability assay, Vero E6. The format is cell-based, African green monkey. The following applies: Vero E6, 48 h of exposure. The method, then:
The cytotoxic effect of all studied compounds was assessed using the WST-1 assay after 48 h of exposure. […] This observation can be explained by the fact that the compound C8 is resazurin, phenoxazine dye, also known as Alamar Blue, which is subject to irreversible metabolic reduction to the resorufin by live mammalian cells. Thus, the cytotoxic effect of this compound cannot be assessed by the WST-1 assay correctly. Therefore, the C8 cytotoxicity was further assessed using the resazurin cell viability assay. This assay allowed us to avoid the interference between the tested compound and dye and obtain more reliable results for colored compounds.
as §1

Data set [7] relates to Vero E6. More on the design: method as in PMID 20837762. The following applies: reference inhibitor compound; cited from earlier work.
The subject of data set [8] is DENV2. More on the design: method as in PMID 20837762. The following applies: reference inhibitor compound; cited from earlier work.

By pEC50 is commonly meant the negative decadic logarithm of the EC50, by convention in mol/L. Consider `CCOC(=O)c1c(CSc2ccccc2)n(C)c2cc(Br)c(O)c(CN(C)C)c12` [Arbidol], for which the CC50 with Vero E6 [1] was 89700 nM. For the same compound, the values for the pEC50 in the data set with TBEV, in the data set on ZIKV and with KUNV were 4.73, 4.92 and 4.73, respectively.
Broadly, the EC50 is the concentration needed to bring the measured effect to its halfway point. Turning to `CC(C)(C)Oc1cccc2nc(N)nc(N)c12` [Compound C2, 5-(tert-butoxy)quinazoline-2,4-diamine], the CC50 at 24 h in data set [2] was 0.31 µM. In [3], the pEC50 is 8.55. Moreover, in the data set with KUNV-Nanoluc, the “antiviral effect against KUNV-Nanoluc (initial screening)” value is reported as “decreased the KUNV-Nanoluc activity only at the maximum tested concentrations” and the EC50 was 0.26 µM. Moreover, in the data set on ZIKV-Nanoluc, the “antiviral effect against ZIKV-Nanoluc (initial screening)” value is given as “completely inhibited the ZIKV-Nanoluc replication at the maximum tested concentration”, the “concentration at which a statistically significant antiviral effect appeared (ZIKV-Nanoluc)” value is 0.2 µM and the EC50 came to 0.48 µM. Moreover, the “antiviral effect against TBEV-Nanoluc (initial screening)” value in the data set with TBEV-Nanoluc is recorded as “clear dose-dependent antiviral effect”. Also, the “antiviral effect against DENV2-Nanoluc (initial screening)” value in the data set on DENV2-Nanoluc is given as “apparent dose-dependent antiviral effects”. Further, the EC50 with DENV2-Nanoluc (Dengue virus) is around 0.13 µM. Besides, the pEC50 with DENV2-Nanoluc (Dengue virus, DENV2, Vero C1008, read-out: EC50 against DENV2) was around 6.89.
Regarding `COc1c(C)c2c(c(O)c1CC=C(C)CCC(=O)O)C(=O)OC2` [Compound C3, 6-(4-hydroxy-6-methoxy-7-methyl-3-oxo-1,3-dihydro-2-benzofuran-5-yl)-4-methylhex-4-enoic acid], the CC50 at 24 h in [2] was above 5 µM. Besides, the “antiviral effect against DENV2-Nanoluc replicon” value with DENV2-Nanoluc replicon is “no effect at the maximum non-toxic concentration”. In addition, the “antiviral effect against TBEV-Nanoluc replicon” value with TBEV-Nanoluc replicon is “no effect at the maximum non-toxic concentration”. For the same compound, in the data set with ZIKV-Nanoluc replicon, the “antiviral effect against ZIKV-Nanoluc replicon” value is “no effect at the maximum non-toxic concentration”. For the same compound, in the data set on U2OS cells [4], the “cytotoxic effect (WST-1 assay)” value is given as “extremely toxic for the U2OS cell line even at the lowest micromolar concentration”. For the same compound, the “antiviral effect against KUNV-Nanoluc (initial screening)” value in the data set with KUNV-Nanoluc is on record as “apparent dose-dependent antiviral effect”. Further, the EC50 in the data set with KUNV-Nanoluc came to 0.21 µM; in the data set with ZIKV-Nanoluc, 0.53 µM; in the data set on TBEV-Nanoluc (Tick-borne encephalitis virus, Vero C1008, read-out: TBEV EC50, μM), 0.61 µM; with DENV2-Nanoluc (Dengue virus), 0.12 µM. Further, in the data set with ZIKV-Nanoluc, the “antiviral effect against ZIKV-Nanoluc (initial screening)” value is “only demonstrated a statistically significant antiviral effect at the maximum tested concentration”. Moreover, the CC50 with U2OS cells [5] is 1660 nM. Also, the “antiviral effect against TBEV-Nanoluc (initial screening)” value with TBEV-Nanoluc was “clear dose-dependent antiviral effect”. Besides, the pEC50 with DENV-2-NGC is 5.24. Further, in the data set with DENV2-Nanoluc, the “antiviral effect against DENV2-Nanoluc (initial screening)” value is “apparent dose-dependent antiviral effects”. Moreover, the “antiviral effect against KUNV-Nanoluc replicon” value in the data set with KUNV-Nanoluc replicon was “no effect at the maximum non-toxic concentration”.
In turn, `CN1C(=O)C2(CC(=O)Nc3c2cnn3Cc2ccc(Cl)cc2)c2cc(Cl)ccc21` (centres unmarked) [Compound C6, 5-chloro-1′-[(4-chlorophenyl)methyl]-1-methyl-1,1′,2,5′,6′,7′-hexahydrospiro[indole-3,4′-pyrazolo[3,4-b]pyridine]-2,6′-dione] showed a CC50 at 24 h in [2] above 50 µM. Also, the “antiviral effect against DENV2-Nanoluc replicon” value in the data set with DENV2-Nanoluc replicon is listed as “most active against all the studied viral replicons”. For the same compound, the pEC50 in the data set on DENV2 [6] was 8.22. Besides, the “antiviral effect against TBEV-Nanoluc replicon” value in the data set on TBEV-Nanoluc replicon is on record as “most active against all the studied viral replicons”. The “cytotoxic effect (WST-1 assay)” value in the data set on Vero E6 cells is “no cytotoxic effect at the maximal tested concentration”. Further, the “antiviral effect against ZIKV-Nanoluc replicon” value in the data set on ZIKV-Nanoluc replicon is listed as “most active against all the studied viral replicons”. In the data set with KUNV-Nanoluc, the “antiviral effect against KUNV-Nanoluc (initial screening)” value is listed as “decreased the KUNV-Nanoluc activity only at the maximum tested concentrations” and the EC50 was determined as 20.6 µM. For the same compound, in the data set with ZIKV-Nanoluc, the “antiviral effect against ZIKV-Nanoluc (initial screening)” value is “partially inhibited the virus activity at this concentration” and the EC50 came out at 23.9 µM. Further, the “antiviral effect against TBEV-Nanoluc (initial screening)” value in the data set on TBEV-Nanoluc is “clear dose-dependent antiviral effect”. Besides, the pEC50 with TBEV-Nanoluc (read-out: TBEV EC50) was 4.86. Besides, the “antiviral effect against DENV2-Nanoluc (initial screening)” value with DENV2-Nanoluc is on record as “apparent dose-dependent antiviral effects”. Moreover, the “antiviral effect against KUNV-Nanoluc replicon” value in the data set on KUNV-Nanoluc replicon is given as “most active against all the studied viral replicons”.
Regarding `COc1cccc2c1C(=O)c1c(O)c3c(c(O)c1C2=O)C[C@@](O)(C(=O)CO)C[C@@H]3O[C@H]1C[C@H](N)[C@H](O)[C@H](C)O1` [Doxorubicin], the CC50 in the data set on Vero E6 [7] was 24 µM. The pEC50 in the data set on DENV2 [8] was 5.92.
